Experimental data from US11415571B2, “Large scale organoid analysis” (Tempus Labs, Inc., priority 2019, dated 2022).

Assays:
Experiment in all cases: caspase 3/7 apoptosis assay, olaparib dilution series on tumor organoids
Format in all cases: cell-based, human
Conditions in all cases: tumor without BRCA1 or BRCA2 mutation
[1] = test system: tumor organoid culture line 10423-12001
Procedure: (§1) Tumor biopsies were collected from four individuals: UK1393, 10423-12001, 10524-12001, and 10941-12002. The tumors were genotyped and determined not carry BRCA1 or BRCA2 mutations. As such, according to conventional guidance, the tumors are not indicated for first-line therapy with a PARP inhibitor. In order to test whether these tumors may still be sensitive to PARP inhibitors, despite not carrying a BRCA1 or BRCA2 mutation, tumor organoids were cultured using cells from the biopsied material.
(§2) Briefly, cells within each of the biopsied tumor samples were dissociated and cultured to establish a tumor organoid culture line from the tumor of each individual. Single tumor organoids from the tumor organoid culture lines were collected and plated, individually, into wells of a multiwell plate with culture medium. A series of six concentrations of olaparib, in a 5-fold serial dilution, were established for the tumor organoids derived from each individual, as well as negative controls. After incubation with olaparib, a caspase 3/7 apoptosis assay was performed in each well, to determine the sensitivity of each tumor organoid to the respective concentration of olaparib. Results of the […] dilution series experiments are plotted in FIG. 3.

[2] = test system: tumor organoid culture line 10941-12002
Procedure: as §1, §2

[3] = test system: tumor organoid culture line UK1393
Procedure: as §1, §2

[4] = test system: tumor organoid culture line 10524-12001
Procedure: as §1, §2

O=C(c1cc(Cc2n[nH]c(=O)c3ccccc23)ccc1F)N1CCN(C(=O)C2CC2)CC1 [Olaparib]
sensitivity to olaparib [1]: fairly insensitive | sensitivity to olaparib [2]: fairly insensitive | sensitivity to olaparib compared with the other tumor organoid culture lines [3]: more than 100 fold | sensitivity to olaparib [4]: fairly insensitive
